Assay results from ChEMBL document CHEMBL2375251, “Anticancer activity of novel hybrid molecules containing 5-benzylidene thiazolidine-2,4-dione” (Eur J Med Chem, 2013).
Activity calls are given as the source filed them. No cut-off for these calls is given here.

Tests used:
U-937 [1] = experiment: Induction of apoptosis in human U937 cells assessed as procaspase-3 activation at 1 uM after 6 hrs by Western blot analysis; format: functional, cell-based
HL-60 [2] = experiment: Induction of apoptosis in human HL60 cells assessed as caspase9-mediated LEHD-pNA cleavage at 1 uM after 6 hrs by colorimetric assay; format: functional, cell-based
U-937 [3] = experiment: Induction of apoptosis in human U937 cells assessed as caspase-3-mediated PARP hydrolysis at 1 uM after 6 hrs by Western blot analysis; format: functional, cell-based
U-937 [4] = experiment: Induction of apoptosis in human U937 cells assessed as caspase9-mediated LEHD-pNA cleavage at 1 uM after 6 hrs by colorimetric assay; format: functional, cell-based
U-937 [5] = experiment: Induction of apoptosis in human U937 cells assessed as chromatin condensation at 1 uM after 6 hrs by Hoechst 33258 staining based fluorescence microscopy; format: functional, cell-based
HL-60 [6] = experiment: Induction of apoptosis in human HL60 cells assessed as caspase 8-mediated IETD-pNA cleavage at 1 uM after 6 hrs by colorimetric assay; format: functional, cell-based
HL-60 [7] = experiment: Induction of apoptosis in human HL60 cells assessed as caspase 3/7-mediated DEVD-pNA cleavage at 1 uM after 6 hrs by colorimetric assay; format: functional, cell-based
MOLT-3 [8] = experiment: Induction of apoptosis in human MOLT3 cells assessed as caspase-3-mediated PARP hydrolysis at 1 uM after 6 hrs by Western blot analysis; format: functional, cell-based
U-937 [9] = experiment: Induction of apoptosis in human U937 cells assessed as procaspase-8 activation at 1 uM after 6 hrs by Western blot analysis; format: functional, cell-based
U-937 [10] = experiment: Induction of apoptosis in human U937 cells assessed as appearance of apoptotic bodies at 1 uM after 6 hrs by Hoechst 33258 staining based fluorescence microscopy; format: functional, cell-based
HL-60 [11] = experiment: Induction of apoptosis in human HL60 cells assessed as procaspase-6 activation at 1 uM after 6 hrs by Western blot analysis; format: functional, cell-based
U-937 [12] = experiment: Cytotoxicity against human U937 cells after 4 hrs by MTT assay; format: functional, cell-based; conditions: for IC50: U-937, 4 h
MOLT-3 [13] = experiment: Induction of apoptosis in human MOLT3 cells assessed as procaspase-8 activation at 1 uM after 6 hrs by Western blot analysis; format: functional, cell-based
U-937 [14] = experiment: Induction of apoptosis in human U937 cells assessed as procaspase-6 activation at 1 uM after 6 hrs by Western blot analysis; format: functional, cell-based
FM3A = experiment: Cytotoxicity against mouse FM3A cells after 2 days by Coulter counter analysis; format: functional, cell-based; conditions: 48 h
HL-60 [15] = experiment: Induction of apoptosis in human HL60 cells assessed as procaspase-3 activation at 1 uM after 6 hrs by Western blot analysis; format: functional, cell-based
HL-60 [16] = experiment: Cytotoxicity against human HL60 cells after 4 hrs by MTT assay; format: functional, cell-based; conditions: for IC50: HL-60, 4 h
MOLT-3 [17] = experiment: Induction of apoptosis in human MOLT3 cells assessed as caspase 3/7-mediated DEVD-pNA cleavage at 1 uM after 6 hrs by colorimetric assay relative to control; format: functional
MOLT-3 [18] = experiment: Induction of apoptosis in human MOLT3 cells assessed as cytochrome c release at 1 uM after 6 hrs by Western blot analysis; format: functional, cell-based
MOLT-3 [19] = experiment: Induction of apoptosis in human MOLT3 cells assessed as procaspase-7 activation at 1 uM after 6 hrs by Western blot analysis; format: functional, cell-based
HL-60 [20] = experiment: Induction of apoptosis in human HL60 cells assessed as procaspase-7 activation at 1 uM after 6 hrs by Western blot analysis; format: functional, cell-based
HL-60 [21] = experiment: Induction of apoptosis in human HL60 cells assessed as appearance of apoptotic bodies at 1 uM after 6 hrs by Hoechst 33258 staining based fluorescence microscopy; format: functional, cell-based
MOLT-3 [22] = experiment: Induction of apoptosis in human MOLT3 cells assessed as chromatin hydrolysis at 1 uM after 6 hrs by agarose gel electrophoresis; format: functional, cell-based
MOLT-3 [23] = experiment: Induction of apoptosis in human MOLT3 cells assessed as procaspase-9 activation at 1 uM after 6 hrs by Western blot analysis; format: functional, cell-based
HeLa = experiment: Cytotoxicity against human HeLa cells after 4 days by Coulter counter analysis; format: functional, cell-based; conditions: 96 h
U-937 [24] = experiment: Induction of apoptosis in human U937 cells assessed as caspase 3/7-mediated DEVD-pNA cleavage at 1 uM after 6 hrs by colorimetric assay; format: functional, cell-based
U-937 [25] = experiment: Induction of apoptosis in human U937 cells assessed as procaspase-7 activation at 1 uM after 6 hrs by Western blot analysis; format: functional, cell-based
MOLT-3 [26] = experiment: Induction of apoptosis in human MOLT3 cells assessed as caspase9-mediated LEHD-pNA cleavage at 1 uM after 6 hrs by colorimetric assay; format: functional, cell-based
MOLT-3 [27] = experiment: Induction of apoptosis in human MOLT3 cells assessed as procaspase-6 activation at 1 uM after 6 hrs by Western blot analysis; format: functional, cell-based
HL-60 [28] = experiment: Induction of apoptosis in human HL60 cells assessed as caspase-3-mediated PARP hydrolysis at 1 uM after 6 hrs by Western blot analysis; format: functional, cell-based
HL-60 [29] = experiment: Induction of apoptosis in human HL60 cells assessed as procaspase-8 activation at 1 uM after 6 hrs by Western blot analysis; format: functional, cell-based
HL-60 [30] = experiment: Induction of apoptosis in human HL60 cells assessed as caspase 3/7-mediated DEVD-pNA cleavage at 1 uM after 6 hrs by colorimetric assay relative to control; format: functional
MOLT-3 [31] = experiment: Induction of apoptosis in human MOLT3 cells assessed as procaspase-3 activation at 1 uM after 6 hrs by Western blot analysis; format: functional, cell-based
U-937 [32] = experiment: Induction of apoptosis in human U937 cells assessed as hypodiploid DNA content at 3 uM after 6 hrs by propidium iodide staining-based flow cytometry relative to control; format: functional
U-937 [33] = experiment: Induction of apoptosis in human U937 cells assessed as chromatin hydrolysis at 1 uM after 6 hrs by agarose gel electrophoresis; format: functional, cell-based
HL-60 [34] = experiment: Induction of apoptosis in human HL60 cells assessed as procaspase-9 activation at 1 uM after 6 hrs by Western blot analysis; format: functional, cell-based
HL-60 [35] = experiment: Induction of apoptosis in human HL60 cells assessed as chromatin hydrolysis at 1 uM after 6 hrs by agarose gel electrophoresis; format: functional, cell-based
U-937 [36] = experiment: Induction of apoptosis in human U937 cells assessed as caspase 3/7-mediated DEVD-pNA cleavage at 1 uM after 6 hrs by colorimetric assay relative to control; format: functional
HL-60 [37] = experiment: Induction of apoptosis in human HL60 cells assessed as chromatin condensation at 1 uM after 6 hrs by Hoechst 33258 staining based fluorescence microscopy; format: functional, cell-based
U-937 [38] = experiment: Induction of apoptosis in human U937 cells assessed as caspase 8-mediated IETD-pNA cleavage at 1 uM after 6 hrs by colorimetric assay; format: functional, cell-based
HL-60 [39] = experiment: Induction of apoptosis in human HL60 cells assessed as hypodiploid DNA content at 3 uM after 6 hrs by propidium iodide staining-based flow cytometry relative to control; format: functional
CCRF-CEM = experiment: Cytotoxicity against human CEM cells after 3 days by Coulter counter analysis; format: functional, cell-based; conditions: 72 h
MOLT-3 [40] = experiment: Induction of apoptosis in human MOLT3 cells assessed as caspase 3/7-mediated DEVD-pNA cleavage at 1 uM after 6 hrs by colorimetric assay; format: functional, cell-based
MOLT-3 [41] = experiment: Cytotoxicity against human MOLT3 cells after 4 hrs by MTT assay; format: functional, cell-based; conditions: for IC50: MOLT-3, 4 h
L1210 = experiment: Cytotoxicity against mouse L1210 cells after 2 days by Coulter counter analysis; format: functional, cell-based; conditions: L1210, 48 h
U-937 [42] = experiment: Induction of apoptosis in human U937 cells assessed as cytochrome c release at 1 uM after 6 hrs by Western blot analysis; format: functional, cell-based
U-937 [43] = experiment: Induction of apoptosis in human U937 cells assessed as procaspase-9 activation at 1 uM after 6 hrs by Western blot analysis; format: functional, cell-based
HL-60 [44] = experiment: Induction of apoptosis in human HL60 cells assessed as cytochrome c release at 1 uM after 6 hrs by Western blot analysis; format: functional, cell-based
MOLT-3 [45] = experiment: Induction of apoptosis in human MOLT3 cells assessed as caspase 8-mediated IETD-pNA cleavage at 1 uM after 6 hrs by colorimetric assay; format: functional, cell-based

## C=C(Br)C(=O)Nc1cccc(/C=C2\SC(=O)N(Cc3ccc(F)cc3)C2=O)c1
U-937 [1]
  Activity: Active
HL-60 [2]
  Activity: Active
U-937 [3]
  Activity: Active
U-937 [4]
  Activity: Active
U-937 [5]
  Activity: Active
HL-60 [6]
  Activity: Active
HL-60 [7]
  Activity: Active
MOLT-3 [8]
  Activity: Active
U-937 [9]
  Activity: Active
U-937 [10]
  Activity: Active
HL-60 [11]
  Activity: Active
U-937 [12]
  Activity: Dose-dependent effect
  IC50: 530 nM
MOLT-3 [13]
  Activity: Active
U-937 [14]
  Activity: Active
FM3A
  IC50: 920 nM
HL-60 [15]
  Activity: Active
HL-60 [16]
  Activity: Dose-dependent effect
  IC50: 770 nM
MOLT-3 [17]
  fold change (FC): >2
MOLT-3 [18]
  Activity: Active
MOLT-3 [19]
  Activity: Active
HL-60 [20]
  Activity: Active
HL-60 [21]
  Activity: Active
MOLT-3 [22]
  Activity: inactive
MOLT-3 [23]
  Activity: Active
HeLa
  IC50: 800 nM
U-937 [24]
  Activity: Active
U-937 [25]
  Activity: Active
MOLT-3 [26]
  Activity: Active
MOLT-3 [27]
  Activity: Active
HL-60 [28]
  Activity: Active
HL-60 [29]
  Activity: Active
HL-60 [30]
  fold change (FC): >5
MOLT-3 [31]
  Activity: Active
U-937 [32]
  fold change (FC): 4
U-937 [33]
  Activity: Active
HL-60 [34]
  Activity: Active
HL-60 [35]
  Activity: Active
U-937 [36]
  fold change (FC): >10
HL-60 [37]
  Activity: Active
U-937 [38]
  Activity: Active
HL-60 [39]
  fold change (FC): 12
CCRF-CEM
  IC50: 680 nM
MOLT-3 [40]
  Activity: Active
MOLT-3 [41]
  Activity: Dose-dependent effect
  IC50: 640 nM
L1210
  IC50: 680 nM
U-937 [42]
  Activity: Active
U-937 [43]
  Activity: Active
HL-60 [44]
  Activity: Active
MOLT-3 [45]
  Activity: Active

## C=C(Br)C(=O)Nc1cccc(/C=C2\SC(=O)N(Cc3ccccc3)C2=O)c1
U-937 [1]
  Activity: Active
HL-60 [2]
  Activity: Active
U-937 [3]
  Activity: Active
U-937 [4]
  Activity: Active
U-937 [5]
  Activity: Active
HL-60 [6]
  Activity: Active
HL-60 [7]
  Activity: Active
MOLT-3 [8]
  Activity: Active
U-937 [9]
  Activity: Active
U-937 [10]
  Activity: Active
HL-60 [11]
  Activity: Active
U-937 [12]
  Activity: Dose-dependent effect
  IC50: 620 nM
MOLT-3 [13]
  Activity: Active
U-937 [14]
  Activity: Active
FM3A
  IC50: 810 nM
HL-60 [15]
  Activity: Active
HL-60 [16]
  Activity: Dose-dependent effect
  IC50: 690 nM
MOLT-3 [17]
  fold change (FC): >2
MOLT-3 [18]
  Activity: Active
MOLT-3 [19]
  Activity: Active
HL-60 [20]
  Activity: Active
HL-60 [21]
  Activity: Active
MOLT-3 [22]
  Activity: inactive
MOLT-3 [23]
  Activity: Active
HeLa
  IC50: 1400 nM
U-937 [24]
  Activity: Active
U-937 [25]
  Activity: Active
MOLT-3 [26]
  Activity: Active
MOLT-3 [27]
  Activity: Active
HL-60 [28]
  Activity: Active
HL-60 [29]
  Activity: Active
HL-60 [30]
  fold change (FC): >5
MOLT-3 [31]
  Activity: Active
U-937 [32]
  fold change (FC): 6
U-937 [33]
  Activity: Active
HL-60 [34]
  Activity: Active
HL-60 [35]
  Activity: Active
U-937 [36]
  fold change (FC): >10
HL-60 [37]
  Activity: Active
U-937 [38]
  Activity: Active
HL-60 [39]
  fold change (FC): 12
CCRF-CEM
  IC50: 510 nM
MOLT-3 [40]
  Activity: Active
MOLT-3 [41]
  Activity: Dose-dependent effect
  IC50: 600 nM
L1210
  IC50: 380 nM
U-937 [42]
  Activity: Active
U-937 [43]
  Activity: Active
HL-60 [44]
  Activity: Active
MOLT-3 [45]
  Activity: Active
